Measured values taken from PubChem BioAssay AID1056 (Sanford-Burnham Center for Chemical Genomics, 2008).

Molecular target: Alkaline phosphatase, tissue-nonspecific isozyme (Homo sapiens) (UniProt P05186)
Assay: potency against alkaline phosphatase TNAP – biochemical, luminescent, dose response, SAR follow-up (AID 1056)
Conditions: purified human TNAP, luminescent substrate read-out

Row | Structure (SMILES) | IC50
1 | CN1CCN(C(=O)c2cc(-c3ccc(Cl)cc3Cl)n[nH]2)CC1 | 828 nM
2 | CC(C)CNC(=O)c1cc(-c2ccc(Cl)cc2Cl)n[nH]1 | 81.5 nM
3 | O=C(c1cc(-c2ccc(Cl)cc2Cl)n[nH]1)N1CCCCCC1 | 1450 nM
4 | O=C(CNc1nc2ccccc2[nH]1)c1ccc(O)c(O)c1 | 93800 nM
5 | O=C(NCCO)c1cc(-c2cc(F)c(Cl)cc2Cl)n[nH]1 | 100 nM
6 | O=C(NCCCCO)c1cc(-c2ccc(Cl)cc2Cl)n[nH]1 | 34.5 nM
7 | O=C1C2C3C=CC(C3)C2C(=O)N1c1n[nH]c(CCc2ccccc2)n1 (stereo not given) | 30600 nM
8 | O=C(NCCCO)c1cc(-c2ccc(Cl)cc2Cl)n[nH]1 | 31.3 nM
9 | O=C1c2ccccc2C(=O)N1c1n[nH]c(Cc2ccccc2)n1 | 670 nM
10 | Cc1nc(Br)cn1CC(=O)c1ccc(O)c(O)c1 | 8740 nM
11 | COc1ccc2c(c1OC)C(=O)OC2CC(=O)c1ccc(O)c(O)c1 (stereo not given) | 29200 nM
12 | CC(C)NC(=O)c1cc(-c2cc(F)c(Cl)cc2Cl)n[nH]1 | 4850 nM
13 | COCCNC(=O)c1cc(-c2ccc(Cl)cc2Cl)n[nH]1 | 46.4 nM
14 | O=C1C2CC=CCC2C(=O)N1c1n[nH]c(CCc2ccccc2)n1 (stereo not given) | 27900 nM
15 | O=C1C2CC=CCC2C(=O)N1c1n[nH]c(-c2cccnc2)n1 (stereo not given) | 10500 nM
16 | O=C(c1cc(-c2ccc(Cl)cc2Cl)n[nH]1)N1CCN(CCO)CC1 | 375 nM
17 | Cc1cn(CC(=O)c2ccc(O)c(O)c2)cn1 | 41100 nM
18 | CCN1CCN(C(=O)c2cc(-c3ccc(Cl)cc3Cl)n[nH]2)CC1 | 488 nM
19 | CC(C)CCNC(=O)c1cc(-c2ccc(Cl)cc2Cl)n[nH]1 | 459 nM
20 | O=C(NCCCO)c1cc(-c2cc(F)c(Cl)cc2Cl)n[nH]1 | 55.8 nM
21 | O=C(Cn1cnc(Br)c1)c1ccc(O)c(O)c1 | 47500 nM
22 | O=C1C2CC=CCC2C(=O)N1c1n[nH]c(-c2ccco2)n1 (stereo not given) | 4680 nM
23 | O=C(c1cc(-c2ccc(Cl)cc2Cl)n[nH]1)N(CCO)CCO | 46.8 nM
24 | O=C(c1cc(-c2cc(F)c(Cl)cc2Cl)n[nH]1)N(CCO)CCO | 127 nM
25 | O=C1C2CCCCC2C(=O)N1c1n[nH]c(Cc2ccccc2)n1 (stereo not given) | 1570 nM
26 | CN(C)C(=O)c1cc(-c2cc(F)c(Cl)cc2Cl)n[nH]1 | 324 nM
27 | O=C(c1cc(-c2ccc(Cl)cc2Cl)n[nH]1)N1CCOCC1 | 574 nM
28 | O=C(NCCO)c1cc(-c2cc(F)c(F)cc2F)n[nH]1 | 134 nM
29 | O=C(NCCO)c1cc(-c2ccc(Cl)cc2Cl)n[nH]1 | 44.4 nM
30 | O=C(NCCO)c1cc(-c2ccc(F)cc2F)n[nH]1 | 35 nM

Results, then the molecule that gave them:

Row | IC50 | Structure (SMILES)
31 | 51.1 nM | CC(C)NC(=O)c1cc(-c2ccc(Cl)cc2Cl)n[nH]1
32 | 649 nM | COc1ccc(C)cc1S(=O)(=O)Nc1cnc2ccccc2c1
33 | 1060 nM | COc1ccc(OC)c(S(=O)(=O)Nc2cccnc2)c1
34 | 1680 nM | COc1cc(C)c(C)cc1S(=O)(=O)Nc1cccnc1
35 | 1550 nM | COc1cc(S(=O)(=O)Nc2cccnc2)c(OC)cc1Br
36 | 511 nM | COc1cc(C)c(Cl)cc1S(=O)(=O)Nc1cccnc1
37 | 285 nM | CCN(CC)C(=O)c1cc(-c2ccc(Cl)cc2Cl)n[nH]1
38 | 119 nM | CN(C)C(=O)c1cc(-c2ccc(Cl)cc2Cl)n[nH]1
39 | 1130 nM | COc1cc(S(=O)(=O)Nc2cccnc2)c(OC)cc1Cl
40 | 25800 nM | COc1cccc(S(=O)(=O)Nc2cnc3ccccc3c2)c1
41 | 398 nM | CC(C)(C)NC(=O)c1cc(-c2ccc(Cl)cc2Cl)n[nH]1
42 | 1490 nM | COc1cc(S(=O)(=O)Nc2cccnc2)c(OC)cc1C
43 | 691 nM | CCOc1cc(C)c(Cl)cc1S(=O)(=O)Nc1cccnc1
44 | 537 nM | CCOc1ccc(Cl)cc1S(=O)(=O)Nc1cccnc1
45 | 1290 nM | COc1ccc(F)cc1S(=O)(=O)Nc1cccnc1
